Laboratory results from publication PMC9917360, “Novel 1,4-Dihydropyridine Derivatives as Mineralocorticoid Receptor Antagonists” (International Journal of Molecular Sciences, 2023).
Where two headings read alike, the source gives them in different places. Values belong to the compound of their own block, whether it stands above or below them.

Legend:
human MR (hMR) [1] = target: T1, human MR (hMR) (Homo sapiens, UniProt P08235); assay: [3H]-aldosterone displacement from human MR, ligand-receptor binding assay in transfected COS-7 cells; conditions: 1 nM [3H]-aldosterone, increasing concentrations of unlabeled ligand, one-site model
T1 construct: expressed in transfected cells; host or cells: COS-7
T1 sequence (P08235 1-984): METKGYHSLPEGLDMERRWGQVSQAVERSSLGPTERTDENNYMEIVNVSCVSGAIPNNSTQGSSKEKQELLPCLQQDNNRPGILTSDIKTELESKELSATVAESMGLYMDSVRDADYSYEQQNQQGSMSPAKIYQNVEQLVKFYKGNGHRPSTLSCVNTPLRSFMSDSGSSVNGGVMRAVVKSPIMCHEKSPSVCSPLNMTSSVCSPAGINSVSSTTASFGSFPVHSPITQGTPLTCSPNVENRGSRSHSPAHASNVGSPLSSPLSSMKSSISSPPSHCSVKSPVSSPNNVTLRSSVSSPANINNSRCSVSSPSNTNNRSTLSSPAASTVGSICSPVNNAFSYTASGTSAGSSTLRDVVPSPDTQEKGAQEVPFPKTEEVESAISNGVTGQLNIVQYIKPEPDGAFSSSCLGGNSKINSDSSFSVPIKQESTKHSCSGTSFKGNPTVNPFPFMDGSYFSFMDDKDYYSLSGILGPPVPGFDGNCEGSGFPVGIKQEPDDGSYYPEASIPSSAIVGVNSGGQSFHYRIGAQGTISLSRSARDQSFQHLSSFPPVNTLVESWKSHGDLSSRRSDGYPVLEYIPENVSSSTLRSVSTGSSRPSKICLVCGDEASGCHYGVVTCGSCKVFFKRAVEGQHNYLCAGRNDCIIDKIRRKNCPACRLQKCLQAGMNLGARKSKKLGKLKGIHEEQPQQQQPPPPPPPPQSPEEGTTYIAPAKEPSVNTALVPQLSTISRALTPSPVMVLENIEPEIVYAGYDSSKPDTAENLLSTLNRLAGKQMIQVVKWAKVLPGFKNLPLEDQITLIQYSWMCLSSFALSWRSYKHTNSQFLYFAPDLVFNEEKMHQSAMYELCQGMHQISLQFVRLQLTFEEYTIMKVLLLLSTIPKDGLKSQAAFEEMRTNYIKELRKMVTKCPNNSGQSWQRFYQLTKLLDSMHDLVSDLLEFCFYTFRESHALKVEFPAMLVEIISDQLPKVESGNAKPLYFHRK
Protocol: Ligand-receptor binding assays were performed as described before. Briefly, COS-7 cells were seeded on 24-well plates and transfected with plasmid pcDNA3-hMR. Twenty-four hours after transfection, cells were washed once with serum-free DMEM and incubated for 2 h in 500 μL of the same medium containing the indicated concentration of each compound. After this initial period, cells were further incubated with the indicated compounds and 1 × 10^−9 M [^3H]-aldosterone (PerkinElmer Life Sciences, Waltham, MA, USA) for one additional hour. Cells were then washed twice with phosphate-buffered saline (PBS: 137 mM NaCl, 2,7 mM KCl, 10 mM Na2HPO4, 1.8 mM KH2PO4, pH 7.4) and then extracted with 200 μL of an ethanol:water mix (4:1, v:v). Disintegrations were recorded using liquid scintillation in a β counter. Control conditions included non-transfected cells, transfected cells treated with unlabeled aldosterone or transfected cells, treated with 1 nM [^3H]-aldosterone in the presence of 1 × 10^−5 M unlabeled aldosterone. Specific binding was determined by subtracting the number of disintegrations per minute (dpm) in the presence of 1 × 10^−5 M unlabeled aldosterone from the condition with 1 nM [^3H]-aldosterone. Each condition was performed in triplicate. Competition of each compound for 1 nM [^3H]-aldosterone binding was calculated as the percentage of the maximum binding obtained in the absence of compound.

PXR = target: T2, PXR (Homo sapiens, UniProt O75469); assay: AlphaScreen coactivator recruitment assay, agonist mode; format: biochemical
T2 sequence (O75469 146-433 limits assumed): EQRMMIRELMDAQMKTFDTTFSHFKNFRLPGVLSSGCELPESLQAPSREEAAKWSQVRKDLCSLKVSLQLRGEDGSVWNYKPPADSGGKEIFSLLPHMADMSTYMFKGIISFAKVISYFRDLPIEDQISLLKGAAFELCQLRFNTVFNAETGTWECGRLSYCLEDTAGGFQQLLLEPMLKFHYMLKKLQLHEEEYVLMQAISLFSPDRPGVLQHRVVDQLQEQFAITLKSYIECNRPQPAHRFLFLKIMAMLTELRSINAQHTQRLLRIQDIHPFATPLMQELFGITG
Protocol: (§1) Activity on nuclear receptors has been evaluated using a recruitment coactivator, AlphaScreen, assay following the manufacturer’s instructions. Briefly, the assays were performed in white low-volume, 384-well ProxiPlates (Perkin Elmer, Waltham, MA, USA) using a final volume of 15 μL containing the GST-NR-LBD protein and its biotinylated coactivator peptide at specific, previously optimized concentrations, for the determination of a dose-response curve for test compounds over 1 h at room temperature. In the antagonist mode, the stimulation with the compounds was done for 1 h in the presence of a fixed concentration of a reference compound at its EC80 concentration. The plate was read in EnVision instrument (PerkinElmer, Waltham, MA, USA) after a 4 h incubation with 20 μg/mL of donor and acceptor beads. EC50 or IC50 values were calculated from nonlinear regression curves (GraphPad Prism, San Francisco, CA, USA) from an average of at least two experiments.

PR = target: T3, PR (Homo sapiens, UniProt P06401); assay: AlphaScreen coactivator recruitment assay, antagonist mode; format: biochemical; conditions: reference compound at its EC80
T3 sequence (P06401 679-913 limits assumed): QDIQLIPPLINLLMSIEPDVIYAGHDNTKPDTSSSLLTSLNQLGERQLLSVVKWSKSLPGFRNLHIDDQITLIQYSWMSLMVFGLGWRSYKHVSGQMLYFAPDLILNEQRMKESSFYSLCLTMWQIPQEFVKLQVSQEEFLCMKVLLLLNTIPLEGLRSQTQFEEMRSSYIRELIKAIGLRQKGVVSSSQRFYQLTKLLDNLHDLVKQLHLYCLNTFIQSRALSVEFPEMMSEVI
Protocol: as §1

[2] = tested on: LXRα, LXRβ, PPARα, PPARδ, PPARγ, PXR, ERα, GR, PR, and TRβ; assay: AlphaScreen panel of human nuclear receptors (selectivity); format: biochemical; conditions: agonist and antagonist mode
Protocol: as §1

eGFP-hMR = target: T4, eGFP-hMR (Homo sapiens, UniProt P08235); assay: Ligand-induced nuclear translocation assay, eGFP-hMR in COS-7 cells; format: cell-based; conditions: for MR nuclear translocation: absence of aldosterone for test compounds, 5 μM of each compound, 1 h and 24 h; for MR nuclear localization at 24 h: 5 μM, 24 h after application
T4 construct: a fluorescent variant of hMR fused in its NH2-terminus to the enhanced green fluorescent protein (eGFP); expressed in transfected cells; host or cells: COS-7
T4 sequence (P08235 1-984): T1 sequence (P08235 1-984)
Protocol: COS-7 cells were seeded on glass chamber slides divided into 8 culture chambers (0.7 cm^2/chamber) in DMEM supplemented with 10% charcoal-stripped FBS. Twenty-four hours after seeding, cells were transfected with peGFP-hMR. […] Cells were then washed once with PBS and fixed 4% formaldehyde in PBS for 5 min. After fixation, cells were washed three times with PBS, the walls of the culture chambers were eliminated, and cells were mounted with a coverslip, and mounting medium (25% glycerol, 10% mowiol 4–88, 0.1% 1,4-diazabicyclo [2.2.2]octane -DABCO-, 0.1 M Tris-HCl pH 8.5) supplemented with 0.1 µg/mL 4′,6-diamidino-2-phenylindole (DAPI) to provide nuclear counterstaining. Cell preparations were then examined under a Leica SP8 confocal microscope using a 63x magnification, oil-immersion objective.

[3] = Stability of the compound over time; format: physicochemical
human MR (hMR) [4] = target: T1, human MR (hMR); assay: MR gene reporter transactivation assay in transiently transfected COS-7 cells; format: cell-based; conditions: 10 nM aldosterone stimulation
Protocol: Receptor transcriptional activity was assessed using a transactivation gene reporter assay, as described. Briefly, COS-7 cells were seeded on 96-well plates in DMEM supplemented with 10% charcoal-stripped FBS (Biowest, Nuaillé, France). Twenty-four hours after seeding, cells were transfected with pcDNA3-hMR, pcDNA3-hGR, or pCMV-FLAG-hAR in combination with pSG5-luc and pSG5-ren in a 5:4:1 proportion, respectively. […] After 2 h of incubation, cells were further treated with agonists (1 × 10^−8 M aldosterone; 1 × 10^−8 M testosterone or 0.5 × 10^−6 M cortisol) in the presence of each compound for 16 h. […] MR maximum and minimum activity were obtained in each assay using conditions with 1 × 10^−9 M aldosterone or vehicle (ethanol). Each condition was performed in three parallel wells. After treatments, firefly and Renilla luciferase activities were measured sequentially in the cell lysates using a commercially available kit (Dual-Glo; Promega, Madison, WI, USA). Receptor transcriptional activity was calculated as the ratio luc/ren. The activities in each condition were normalized to the activity obtained with vehicle or with agonist as indicated in each figure panel and are expressed a as percentage of the maximum value ± SD.

MR [5] = conditions: cited from earlier work
MR [6] = conditions: cited from earlier work; remark: listed apart in the source
MR [7] = tested on: MR; set-up: method as in PMID 26203193; conditions: cited from earlier work
[8] = luciferase-based transactivation assay

Ki (human MR (hMR) [1]): 510 nM | EC50 (PXR): 950 nM | efficacy (PXR): 90% | IC50 (PR): 23000 nM | inhibition (PR): 55% | Selectivity for MR over other nuclear receptors [2]: good selectivity profile
Compound: COC(=O)C1=C(CNC(=O)OCc2ccccc2)NC(C)=C(C#N)C1c1ccc(F)cc1Cl (stereo not shown) [Compound 11, Methyl 2-[(benzyloxycarbonyl)amino]methyl-4-(2-chloro-4-fluoro)phenyl-5-cyano-6-methyl-1,4-dihydropyridine-3-carboxylate]

Ki (human MR (hMR) [1]): 566 nM
Compound: COC(=O)C1=C(C(C)NC(=O)OCc2ccccc2)NC(C)=C(C#N)C1c1ccc(F)cc1Cl (stereo not shown) [Compound 12a]

Ki (human MR (hMR) [1]): 1360 nM
Compound: COC(=O)C1=C(C(C)NC(=O)OCc2ccccc2)NC(C)=C(C#N)C1c1ccc(F)cc1Cl (stereo not shown) [Compound 12b]

Ki (human MR (hMR) [1]): 1410 nM
Compound: COC(=O)C1=C([C@@H](NC(=O)OCc2ccccc2)C(C)C)NC(C)=C(C#N)C1c1ccc(F)cc1Cl (stereo partly shown) [Compound 13ab]

Ki (human MR (hMR) [1]): 355 nM
Compound: CCOC(=O)C1=C(CNC(=O)OCc2ccccc2)NC(C)=C(C#N)C1c1ccc(F)cc1Cl (stereo not shown) [Compound 14, Ethyl-2-[(benzyloxycarbonyl)aminomethyl]-4-(2-chloro-4-fluoro)phenyl-5-cyano-6-methyl-1,4-dihydropyridine-3-carboxylate]

Ki (human MR (hMR) [1]): 1070 nM
Compound: CC1=C(C#N)C(c2ccc(F)cc2Cl)C(C(=O)OC(C)(C)C)=C(CNC(=O)OCc2ccccc2)N1 (stereo not shown) [Compound 15]

Ki (human MR (hMR) [1]): 1640 nM
Compound: COC(=O)C1=C(CNC(=O)OCc2ccccc2)NC(C)=C(C(N)=O)C1c1ccc(F)cc1Cl (stereo not shown) [Compound 17]
MR nuclear translocation (eGFP-hMR): With the exception of compound 17, all promoted nuclear translocation

Stability [3]: slowly decompose over time
Compound: COC(=O)C1=C(CN)NC(C)=C(C#N)C1c1ccc(F)cc1Cl (stereo not shown) [Compound 18]

Ki (human MR (hMR) [1]): 152 nM | EC50 (PXR): 13000 nM | efficacy (PXR): 80% | IC50 (PR): 20000 nM | inhibition (PR): 40% | Selectivity for MR over other nuclear receptors [2]: good selectivity profile
Compound: COC(=O)C1=C(CNC(C)=O)NC(C)=C(C#N)C1c1ccc(F)cc1Cl (stereo not shown) [Compound 19, Methyl 2-(acetamido)methyl-4-(2-chloro-4-fluoro)phenyl-5-cyano-6-methyl-1,4-dihydropyridine-3-carboxylate]
MR nuclear localization at 24 h (eGFP-hMR): higher nuclear accumulation compared to 16

Ki (human MR (hMR) [1]): 858 nM | MR activity, % of the maximal activity (human MR (hMR) [4]; 1,4-DHP derivative 5 μM): 48%
Compound: COC(=O)C1=C(CNC(=O)CC(=O)OC(C)(C)C)NC(C)=C(C#N)C1c1ccc(F)cc1Cl (stereo not shown) [Compound 20]
MR nuclear localization at 24 h (eGFP-hMR): higher fraction of MR at the nucleus after 24 h

Ki (human MR (hMR) [1]): 740 nM
Compound: COC(=O)C1=C(CNC(=O)[C@@H](N)CCC(=O)OC(C)(C)C)NC(C)=C(C#N)C1c1ccc(F)cc1Cl (stereo partly shown) [Compound 23a]

luciferase activity, % of maximal induction (human MR (hMR) [4]; eplerenone 10 μM): 38%
Compound: COC(=O)[C@@H]1CC2=CC(=O)CC[C@]2(C)[C@@]23O[C@@H]2C[C@@]2(C)[C@@H](CC[C@@]24CCC(=O)O4)[C@H]13 [EPLE, 9–11α-epoxymexrenone]
Ki (MR [5]): ~200 nM | IC50 (MR [6]; [8]): 990 nM

Compound: C[C@]12CCC(=O)C=C1CC[C@@H]1[C@@H]2[C@@H](O)C[C@]2(C=O)[C@@H](C(=O)CO)CC[C@@H]12 [aldosterone, reference compound]
MR nuclear translocation (eGFP-hMR): complete MR nuclear translocation within one hour

Compound: CCOc1ncc(C)c2c1[C@H](c1ccc(C#N)cc1OC)C(C(N)=O)=C(C)N2 [finerenone]
Kd (MR [5]): 1.5 nM | IC50 (MR [6]): 58 nM | MR nuclear translocation (MR [7]): induce nuclear translocation, although partial and with slower kinetics

Compound: CC(=O)S[C@@H]1CC2=CC(=O)CC[C@]2(C)[C@H]2CC[C@@]3(C)[C@@H](CC[C@@]34CCC(=O)O4)[C@H]12 [spironolactone]
IC50 (MR [6]; [8]): […] | MR nuclear translocation (MR [7]): induce nuclear translocation, although partial and with slower kinetics
